The conditions of data set [1]: Crystal; DTA.
Data set [2] can be described thus: Molar enthalpy of transition or fusion. To be noted: Crystal; DSC.

SMILES strings stand for the structures. ± gives the expanded uncertainty stated by the source.

Regarding `O=C(/C=C/c1ccc(O)c(O)c1)O[C@H](Cc1ccc(O)c(O)c1)C(=O)O` [rosmarinic acid], the Normal melting temperature in data set [1] stood at 160.96 ± 3.4 °C. Moreover, the “Molar enthalpy of transition or fusion” value in data set [2] was 3.92 ± 0.335 kcal/mol.
